Measured values reported in publication PMC9160031, “Identification of HMGCR as the anticancer target of physapubenolide against melanoma cells by in silico target prediction” (Acta Pharmacologica Sinica, 2021).

Target: T1, 3-hydroxy-methylglutaryl CoA reductase (HMGCR) (Homo sapiens, UniProt P04035)
T1 sequence (P04035 1-888): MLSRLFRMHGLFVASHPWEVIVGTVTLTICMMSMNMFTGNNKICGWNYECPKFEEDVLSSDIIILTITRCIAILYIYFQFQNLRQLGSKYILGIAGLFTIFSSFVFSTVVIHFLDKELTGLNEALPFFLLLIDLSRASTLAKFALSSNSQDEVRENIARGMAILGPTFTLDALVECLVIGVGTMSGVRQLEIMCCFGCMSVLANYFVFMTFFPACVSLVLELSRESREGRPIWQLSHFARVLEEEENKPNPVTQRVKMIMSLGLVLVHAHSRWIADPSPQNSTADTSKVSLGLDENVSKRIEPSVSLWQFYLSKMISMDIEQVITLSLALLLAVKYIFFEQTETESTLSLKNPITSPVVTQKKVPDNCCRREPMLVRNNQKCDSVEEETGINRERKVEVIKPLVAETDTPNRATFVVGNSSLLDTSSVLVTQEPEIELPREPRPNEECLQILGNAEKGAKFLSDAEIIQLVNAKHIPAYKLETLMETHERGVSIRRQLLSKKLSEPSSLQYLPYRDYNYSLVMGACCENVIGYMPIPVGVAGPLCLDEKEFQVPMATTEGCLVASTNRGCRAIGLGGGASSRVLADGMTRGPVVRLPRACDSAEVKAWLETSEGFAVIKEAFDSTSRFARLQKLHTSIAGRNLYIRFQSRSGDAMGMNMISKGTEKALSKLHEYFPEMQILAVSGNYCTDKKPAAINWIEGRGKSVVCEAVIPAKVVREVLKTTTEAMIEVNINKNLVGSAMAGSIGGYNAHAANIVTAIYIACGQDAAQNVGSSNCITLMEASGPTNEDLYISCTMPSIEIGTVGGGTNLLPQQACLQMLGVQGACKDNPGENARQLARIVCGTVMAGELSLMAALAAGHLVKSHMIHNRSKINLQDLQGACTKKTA
Experiment: SPR direct binding assay (PB listed as stationary phase)

CC(=O)O[C@H]1CC([C@H](C)C2CC(C)=C(C)C(=O)O2)[C@@]2(C)CCC3C(C[C@H]4O[C@]45[C@@H](O)C=CC(=O)[C@]35C)[C@]12O (stereo partly shown) [PB, Physapubenolide]
Kd: 1.46 µM
